Data: publication PMC2878602 (Fems Yeast Research, 2010)

Key:
[1] = target: T1, Agt1 (AGT1 from ale strain A60) (Saccharomyces cerevisiae, UniProt P53048); experiment: inhibition of […]-maltose uptake into intact yeast transformants; format: cell-based
T1 sequence (P53048 1-616): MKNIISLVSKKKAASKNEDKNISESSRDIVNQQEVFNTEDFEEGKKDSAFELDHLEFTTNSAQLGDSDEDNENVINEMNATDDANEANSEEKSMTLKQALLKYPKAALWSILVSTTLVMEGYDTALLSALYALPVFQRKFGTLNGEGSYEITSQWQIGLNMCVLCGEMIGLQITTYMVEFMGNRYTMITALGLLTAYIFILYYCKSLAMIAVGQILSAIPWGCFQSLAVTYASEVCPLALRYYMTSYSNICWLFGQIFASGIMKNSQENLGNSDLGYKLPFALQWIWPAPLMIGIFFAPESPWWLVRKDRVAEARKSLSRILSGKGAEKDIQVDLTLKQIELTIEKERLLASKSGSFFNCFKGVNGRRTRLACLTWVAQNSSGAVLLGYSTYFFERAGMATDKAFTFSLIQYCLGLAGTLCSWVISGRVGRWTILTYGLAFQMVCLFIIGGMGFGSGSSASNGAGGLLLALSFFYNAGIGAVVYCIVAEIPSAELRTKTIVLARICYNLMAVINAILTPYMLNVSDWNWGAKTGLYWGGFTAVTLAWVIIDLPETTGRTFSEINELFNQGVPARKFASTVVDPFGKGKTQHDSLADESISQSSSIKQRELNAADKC

[2] = target: T2, Agt1 (AGT1 from ale strain A179) (Saccharomyces cerevisiae, UniProt P53048); experiment: as above; format: cell-based
T2 sequence (P53048 1-616): T1 sequence (P53048 1-616)

[3] = read-out: % inhibition at 50 mM
[4] = read-out: % inhibition at 75 mM

Compound: OC[C@H]1O[C@H](O[C@H]2[C@H](O)[C@@H](O)[C@@H](O[C@H]3[C@H](O)[C@@H](O)C(O)O[C@@H]3CO)O[C@@H]2CO)[C@H](O)[C@@H](O)[C@@H]1O (stereo partly shown) [maltotriose]
- inhibition at 50000 µM [1, 3]: 85%
- inhibition at 50000 µM [2, 3]: 79%

Compound: OC[C@H]1O[C@H](O[C@H]2O[C@H](CO)[C@@H](O)[C@H](O)[C@H]2O)[C@H](O)[C@@H](O)[C@@H]1O [trehalose]
- inhibition at 75000 µM [1, 4]: 94%
- inhibition at 75000 µM [2, 4]: 85%
